These are literature values, as cited in patent publication US5308833A, “Method for treating hepatitis B carriers with minimal disease” (SciClone Pharmaceuticals, priority 1992, dated 1994).

Where no end group is shown, it is not given here.

Data set [1] deals with hepatitis B virus.
The subject of data set [2] is lymphocyte. Particulars: individuals suffering from chronic active hepatitis B.

Take “thymosin α-1 (SDAAVDTSSEITTKDLKEKKEVVEEAEN; ends and bridges not checked; UniProt P06454 2-29, looked up) [28 amino acid peptide originally isolated from calf thymus thymosin fraction 5]”: the “hepatitis B virus DNA in serum” value in data set [1] (patients with chronic active hepatitis B administered the peptide) is recorded as “cleared hepatitis B virus DNA from serum”. In addition, the “serum HBV DNA after treatment was terminated” value in data set [1] (patients with chronic active hepatitis B, after treatment was terminated) is listed as “tested persistently negative for serum HBV DNA”. Further, in data set [2], the lymphocyte counts result is reported as “increases in lymphocyte counts” and the “production of γ-interferon” value is on record as “enhance production of γ-interferon”.
